# Laboratory results from publication PMC3352596 (Bioorganic & medicinal chemistry letters, 2011).
# Columns and labels:
# [1] = test system: HCV RNA replication (subgenomic HCV replicon); test: inhibition of HCV RNA replication in Huh7 cells, subgenomic HCV replicon system; assay type: cell-based, Hepatitis C virus; conditions: for inhibition at 10 µM: Hepatitis C virus, Huh-7, read-out: Anti-HCV activity: % inhib @ 10 μM in Huh7 cells, HCV, 10 μM, Huh7 cells, HCV RNA; for antiviral activity or cytotoxicity: anti-HCV, anti-HIV and cytotoxicity assays of Table 1
# adenosine deaminase [2] = target: T1, adenosine deaminase (Bos taurus, UniProt P56658); test: evaluation as substrates of adenosine deaminase; assay type: biochemical
# T1 sequence (P56658 1-363): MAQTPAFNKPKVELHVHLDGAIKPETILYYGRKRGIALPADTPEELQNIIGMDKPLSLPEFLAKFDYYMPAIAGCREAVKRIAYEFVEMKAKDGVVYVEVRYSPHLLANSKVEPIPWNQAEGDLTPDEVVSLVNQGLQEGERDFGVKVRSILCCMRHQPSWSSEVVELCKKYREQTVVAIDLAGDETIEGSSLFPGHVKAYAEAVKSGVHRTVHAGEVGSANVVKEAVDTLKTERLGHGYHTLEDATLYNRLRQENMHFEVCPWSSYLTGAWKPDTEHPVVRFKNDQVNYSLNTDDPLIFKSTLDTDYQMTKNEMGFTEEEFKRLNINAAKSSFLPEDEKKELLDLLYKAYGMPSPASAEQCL
# adenosine deaminase [3] = target: T1, adenosine deaminase; test: inhibition of ADA catalyzed conversion of adenosine to inosine; assay type: biochemical; conditions: compounds tested at 10 μM
# Huh7 cells = test: cytotoxicity in Huh7 cells by amplification of ribosomal RNA; assay type: cell-based; conditions: for inhibition at 10 µM: Homo sapiens, Huh-7, read-out: Anti-HCV activity: % inhib @ 10 μM in Huh7 cells, rRNA; for cytotoxicity / toxicity to cell lines: Huh7, PBM, CEM, Vero cell lines
# [4] = stability in pH 7.4 phosphate buffer; assay type: physicochemical; conditions: 23 °C, 3 days
# HCV = conditions: non-obligatory chain terminators toward RNA elongation; cited from earlier work
# [5] = cited from earlier work
# [6] = cytotoxicity in CEM cells; assay type: cell-based; conditions: human, lymphoblastoid CEM cells
smiles,measurement,setting,value
CCOP(=O)(O)c1nc(N)nc2c1ncn2[C@@H]1O[C@H](CO)[C@@H](O)[C@@]1(C)O [Compound 10],inhibition at 10 µM,[1],19.3%
same,substrate of adenosine deaminase (nitrogen to oxygen transformation),adenosine deaminase [2],none underwent a nitrogen to oxygen transformation
same,ability to inhibit ADA catalyzed conversion of adenosine to inosine,adenosine deaminase [3],Only compound 21 was found effective
C[C@@]1(O)[C@H](O)[C@@H](CO)O[C@H]1n1cnc2c(N)nc(N=[N+]=[N-])nc21 [Compound 20],antiviral activity or cytotoxicity,[1],no antiviral activity or cytotoxicity
same,inhibition at 10 µM,Huh7 cells,0%
COc1nc(Cl)nc2c1ncn2[C@@H]1O[C@H](CO)[C@@H](O)[C@@]1(C)O [Compound 18],inhibition at 10 µM,[1],14.3%
same,antiviral activity or cytotoxicity,[1],no antiviral activity or cytotoxicity
Cc1nc(N)nc2c1ncn2[C@@H]1O[C@H](CO)[C@@H](O)[C@@]1(C)O [Compound 6],inhibition at 10 µM,Huh7 cells,0%
C[C@@]1(O)[C@H](O)[C@@H](CO)O[C@H]1n1cnc2c(N)nc(-n3cc([Si](C)(C)C)nn3)nc21 [Compound 22],antiviral activity or cytotoxicity,[1],no antiviral activity or cytotoxicity
same,inhibition at 10 µM,Huh7 cells,0%
C[C@@]1(O)[C@H](O)[C@@H](CO)O[C@H]1n1cnc2c(N)nc(NN)nc21 [Compound 19],stability in phosphate buffer,[4],complete conversion of 19 to a complex mixture of products after 3 days
same,cytotoxicity / toxicity to cell lines,Huh7 cells,no observed cytotoxicity
"C[C@@]1(O)[C@H](O)[C@@H](CO)O[C@H]1n1cnc2c(N)ncnc21 [Compound 1, 2′-C-Methyl adenosine]",in vitro anti-HCV activity,HCV,selective in vitro anti-HCV activity
same,in vivo bioavailability,[5],poor bioavailability
Cc1nc2c3ncn([C@@H]4O[C@H](CO)[C@@H](O)[C@@]4(C)O)c3nc(N)n2n1 [Compound 13a],inhibition at 10 µM,Huh7 cells,0%
C[C@@]1(O)[C@H](O)[C@@H](CO)O[C@H]1n1cnc2c1nc(N)n1nc(-c3ccco3)nc21 [Compound 13b],inhibition at 10 µM,Huh7 cells,0%
same,ability to inhibit ADA catalyzed conversion of adenosine to inosine,adenosine deaminase [3],Only compound 21 was found effective
C[C@@]1(O)[C@H](O)[C@@H](CO)O[C@H]1n1cnc2c(N)nc(Cl)nc21 [Compound 17],antiviral activity or cytotoxicity,[1],no antiviral activity or cytotoxicity
"C[C@@]1(O)[C@H](O)[C@@H](CO)O[C@H]1n1cnc2c(=O)[nH]c(N)nc21 [Compound 2, 2′-C-methyl guanosine]",in vitro anti-HCV activity,HCV,selective in vitro anti-HCV activity
same,in vivo bioavailability,[5],poor bioavailability
CCOC(=O)[C@H](C)NP(=O)(OC[C@H]1O[C@@H](n2cnc3c(C)nc(N)nc32)[C@](C)(O)[C@@H]1O)Oc1ccccc1 (stereo partly shown) [Compound 7],anti-HCV activity / inhibition of HCV replicon RNA replication,[1]; up to 10 μM,did not display any inhibition of HCV replicon RNA replication
same,inhibition at 10 µM,Huh7 cells,0%
C[C@@]1(O)[C@H](O)[C@@H](CO)O[C@H]1n1cnc2c(N)nc(-n3ccnn3)nc21 [Compound 21],antiviral activity or cytotoxicity,[1],no antiviral activity or cytotoxicity
same,inhibition at 10 µM,Huh7 cells,0%
same,substrate of adenosine deaminase (nitrogen to oxygen transformation),adenosine deaminase [2],none underwent a nitrogen to oxygen transformation
same,ability to inhibit ADA catalyzed conversion of adenosine to inosine,adenosine deaminase [3],effective
C[C@@]1(O)[C@H](O)[C@@H](CO)O[C@H]1n1cnc2c(=N)n(N)[nH]c(=O)c21 [Compound 33],inhibition at 10 µM,Huh7 cells,0%
"C[C@@]1(O)[C@H](O)[C@@H](CO)O[C@H]1n1cnc2c(=O)[nH]nc(N)c21 [Compound 35, 7-amino-1-(2-methyl-δ -D-ribofuranosyl)-1H-imidazo [4,5-d] pyridazin-4-(5H)-one]",inhibition at 10 µM,Huh7 cells,0%
same,ability to inhibit ADA catalyzed conversion of adenosine to inosine,adenosine deaminase [3],Only compound 21 was found effective
C[C@@]1(OC(=O)c2ccccc2)[C@H](OC(=O)c2ccccc2)[C@@H](COC(=O)c2ccccc2)O[C@H]1n1cnc2c(N)nc(NO)nc21 [Compound 26],CC50,[6],27.4 µM
same,cytotoxicity / toxicity to cell lines,Huh7 cells,broad toxicity against most cell lines tested
C[C@@]1(OC(=O)c2ccccc2)[C@H](OC(=O)c2ccccc2)[C@@H](COC(=O)c2ccccc2)O[C@H]1n1cnc2c(Cl)nc(NO)nc21 [Compound 27],inhibition at 10 µM,Huh7 cells,99.9%
same,cytotoxicity / toxicity to cell lines,Huh7 cells,broad toxicity against most cell lines tested
CCOP(=O)(OCC)c1nc(N)nc2c1ncn2[C@@H]1O[C@H](CO)[C@@H](O)[C@@]1(C)O [Compound 9],inhibition at 10 µM,[1],18.7%
same,inhibition at 10 µM,Huh7 cells,14.8%
same,substrate of adenosine deaminase (nitrogen to oxygen transformation),adenosine deaminase [2],none underwent a nitrogen to oxygen transformation
same,ability to inhibit ADA catalyzed conversion of adenosine to inosine,adenosine deaminase [3],Only compound 21 was found effective
"C[C@@]1(O)[C@H](O)[C@@H](CO)O[C@H]1n1cnc2c(N)n[nH]c(=O)c21 [Compound 32, 4-amino-1-(2-methyl-β-D-ribofuranosyl)-3H-imidazo[4,5-d] pyriazin-7-(6H)-one]",inhibition at 10 µM,Huh7 cells,0%
same,substrate of adenosine deaminase (nitrogen to oxygen transformation),adenosine deaminase [2],none underwent a nitrogen to oxygen transformation
same,ability to inhibit ADA catalyzed conversion of adenosine to inosine,adenosine deaminase [3],Only compound 21 was found effective
